According to patent publication US20250145631A1, “HETEROCYCLIC COMPOUND ACTING ON G12D MUTANT KRAS PROTEIN” (Astellas Pharma Inc., priority 2022, published 2025):

Assays:
KRAS G12D = target: T1, KRAS G12D (Homo sapiens, UniProt P01116, G12D); test: KRAS degradation activity by Cell ELISA in AsPC-1 cells (Test Example 1); type: cell-based; settings: Cell ELISA; for Dmax: ASPC1, overnight treatment, read-out: Dmax (degradation rate at the concentration showing highest degradation); for DC50: overnight treatment, read-out: DC50 (50% degradation concentration of KRAS)
T1 construct: host or cells: AsPC-1 (human pancreatic cancer line)
Procedure, shortened: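 AsPC-1 cells (2.0×10^4/well) treated overnight with compounds at 10 μM–0.3 nM (10 points), then fixed, permeabilised and stained for KRAS G12D (800 nm) and β-actin (700 nm) by in-cell ELISA. KRAS signal normalised to β-actin, DMSO set as 0% and actin-only staining as 100%; DC50 from Sigmoid-Emax regression up to Dmax.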

[1] = test system: human G12D mutant KRAS-positive pancreatic cancer line AsPC-1; test: Non-anchorage-dependent cell growth inhibitory effect, spheroid 3D culture (Test Example 3); type: cell-based; settings: ASPC1, 144 h, AsPC-1 spheroid 3D culture, 6 days, CellTiter Glo 2.0, read-out: IC50 (non-anchorage-dependent cell growth inhibition)
Procedure, shortened: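 AsPC-1 cells grown as spheroids in RPMI 1640 with 10% FBS at 37° C, 5% CO2, then exposed to compounds (10 μM to 0.3 nM final) for 6 days. Viability read by CellTiter Glo 2.0 luminescence. IC50 from Sigmoid-Emax regression with DMSO as 100% and cell-free medium as 0%.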

T1 sequence (P01116 1-188 isoform P01116-2 G12D): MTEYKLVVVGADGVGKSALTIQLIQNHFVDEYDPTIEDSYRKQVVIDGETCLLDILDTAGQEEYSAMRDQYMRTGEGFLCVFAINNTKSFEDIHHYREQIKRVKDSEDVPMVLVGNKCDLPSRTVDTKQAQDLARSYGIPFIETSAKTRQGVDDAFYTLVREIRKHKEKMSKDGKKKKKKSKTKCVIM

| Dmax (KRAS G12D) [%] | DC50 (KRAS G12D) [nM] | IC50 [1] [nM] | Structure (SMILES) |
| --- | --- | --- | --- |
| 86 | 13 | 27 | Cc1c(F)cc2[nH]ncc2c1-c1c(C2CC2)cc2c(N3C[C@@H]4C[C@H]3CN4)nc(OC3CCOCC3)nc2c1OCc1ccc(C(=O)N2CCN(Cc3ccc4c(c3)n(C)c(=O)n4C3CCC(=O)NC3=O)C[C@@H]2C)cc1 (stereo partly drawn) [Example 8, 3-(5-{[(3S)-4-{4-[({(7M)-6-cyclopropyl-4-[(1S,4S)-2,5-diazabicyclo[2.2.1]heptan-2-yl]-7-(6-fluoro-5-methyl-1H-indazol-4-yl)-2-[(oxan-4-yl)oxy]quinazolin-8-yl}oxy)methyl]benzoyl}-3-methylpiperazin-1-yl]methyl}-3-methyl-2-oxo-2,3-dihydro-TH-benzimidazol-1-yl)piperidine-2,6-dione] |
| 86 | 8 | 15 | CO[C@@H](C)COc1nc(N2C[C@@H]3C[C@H]2CN3)c2cc(C3CC3)c(-c3c(C)c(F)cc4[nH]ncc34)c(OCc3ccc(C(=O)N4CCN(Cc5ccc6c(c5)n(C)c(=O)n6C5CCC(=O)NC5=O)C[C@@H]4C)cc3)c2n1 (stereo partly drawn) [Example 10, 3-(5-{[(3S)-4-{4-[({(7M)-6-cyclopropyl-4-[(1S,4S)-2,5-diazabicyclo[2.2.1]heptan-2-yl]-7-(6-fluoro-5-methyl-1H-indazol-4-yl)-2-[(2S)-2-methoxypropoxy]quinazolin-8-yl}oxy)methyl]benzoyl}-3-methylpiperazin-1-yl]methyl}-3-methyl-2-oxo-2,3-dihydro-1H-benzimidazol-1-yl)piperidine-2,6-dione] |
| 82 | 18 | 41 | CO[C@@H](C)COc1cc(O[C@H]2CCNC2)c2cc(C3CC3)c(-c3c(C)c(F)cc4[nH]ncc34)c(OCc3ccc(C(=O)N4CCN(Cc5ccc6c(c5)n(C)c(=O)n6C5CCC(=O)NC5=O)C[C@@H]4C)cc3)c2n1 (stereo partly drawn) [Example 12, 3-[5-({(3S)-4-[4-({[6-cyclopropyl-7-(6-fluoro-5-methyl-1H-indazol-4-yl)-2-[(2S)-2-methoxypropoxy]-4-{[(3S)-pyrrolidin-3-yl]oxy}quinolin-8-yl]oxy}methyl)benzoyl]-3-methylpiperazin-1-yl}methyl)-3-methyl-2-oxo-2,3-dihydro-1H-benzimidazol-1-yl]piperidine-2,6-dione] |
| 86 | 22 | 33 | CO[C@@H](C)COc1cc(N2C[C@@H]3C[C@H]2CN3)c2cc(C3CC3)c(-c3c(C)c(F)cc4[nH]ncc34)c(OCc3ccc(C(=O)N4CCN(Cc5ccc6c(c5)n(C)c(=O)n6C5CCC(=O)NC5=O)C[C@@H]4C)cc3)c2n1 (stereo partly drawn) [Example 29, 3-(5-{[(3S)-4-{4-[({6-cyclopropyl-4-[(1S,4S)-2,5-diazabicyclo[2.2.1]heptan-2-yl]-7-(6-fluoro-5-methyl-1H-indazol-4-yl)-2-[(2S)-2-methoxypropoxy]quinolin-8-yl}oxy)methyl]benzoyl}-3-methylpiperazin-1-yl]methyl}-3-methyl-2-oxo-2,3-dihydro-1H-benzimidazol-1-yl)piperidine-2,6-dione] |
